Laboratory results taken from patent EP4678638A1, “NEW E3 UBIQUITIN LIGASE LIGAND, PROTEIN DEGRADATION AGENT AND USE THEREOF” (priority 2023, dated 2024).
pIC50: −log10 of the molar value.

Experiments:
MM.1R = assay: CCK-8 proliferation, MM.1R; format: cell-based; conditions: CCK-8, 72 hours, read-out: Inhibitory activity (IC50) on tumor cell proliferation, MM.1R
Method: (§1) The tumor cells used herein were cultured in a cell culture medium listed in table A1 at 37°C in an incubator with 5% CO2. Prior to experimentation, all cell lines used were correctly identified by STR profiling, and tested negative for mycoplasma contamination using a mycoplasma detection kit through routine screenings. Table A1. Tumor cells and cell culture medium used in the present disclosure
(§2) IC50 values of the compounds of the present disclosure (including the compounds in Table 1, and compounds of examples) were measured using the Meilun Cell Counting Kit-8 kit from Dalian Meilun Biotech Co., Ltd. Assay details are as follows: tumor cells were seeded in a 96-well plate at a density listed in Table A2. After 24h, 100 µL of the inoculated cells were treated with 0.5µL of the compounds of the present disclosure (including the compounds in Tables 1 and 2, and compounds of examples) at 10 different successively decreasing concentrations (starting at the highest concentration of 10µM; 5-fold serial dilutions). After the cells were treated with the compounds of the present disclosure for a period of time, the cell viability detection reagent was added to the culture medium for cell viability assessment according to the instructions provided with the CCK-8 kit. […] The growth inhibition of the compounds of the present disclosure on cells was plotted by Prism Graphpad software, and the IC50 values of the compounds of the present disclosure were calculated therefrom. […] Seeding protocol and treatment time for tumor cells

H1975 = assay: CCK-8 proliferation, NCI-H1975 (H1975); format: cell-based, Human; conditions: Homo sapiens, NCI-H1975; CCK-8; 96 hours; read-out: Inhibitory activity (IC50) on tumor cell proliferation, H1975
Method in brief: (§3)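 Cells seeded, then after 24 h treated with 10 concentrations (top 10 µM, 5-fold serial dilution) for a line-specific time at 37°C, 5% CO2. Viability read by CCK-8; IC50 fitted from growth-inhibition curves.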

CCRF-CEM = assay: CCK-8 proliferation, CCRF-CEM; format: cell-based, Human; conditions: Homo sapiens, CCRF-CEM; CCK-8; 96 hours; read-out: Inhibitory activity (IC50) on tumor cell proliferation, CCRF-CEM
Method in brief: as §3

Kasumi-1 = assay: CCK-8 proliferation, Kasumi-1; format: cell-based, Human; conditions: Homo sapiens, Kasumi 1, 72 hours, read-out: Inhibitory activity (IC50) on tumor cell proliferation, Kasumi-1
Method: as §1, §2

MM.1S = assay: CCK-8 proliferation, MM.1S; format: cell-based; conditions: Homo sapiens, MM1.S; CCK-8; 72 hours; read-out: Inhibitory activity (IC50) on tumor cell proliferation, MM1S
Method in brief: as §3

[1] = molecular target: T1, human Cereblon WT GST-tagged protein (Homo sapiens, UniProt Q96SW2); assay: CRBN binding, HTRF (CEREBLON BINDING kit); conditions: Table II-2, CRBN binding screening, HTRF; for inhibition at 0.5 µM: read-out: Inhibition rate (%) at 0.5µM; for inhibition at 2 µM: read-out: Inhibition rate (%) at 2 µM
T1 construct: purchased CISBIO 64BDCRBNPEH
T1 sequence (Q96SW2 whole entry): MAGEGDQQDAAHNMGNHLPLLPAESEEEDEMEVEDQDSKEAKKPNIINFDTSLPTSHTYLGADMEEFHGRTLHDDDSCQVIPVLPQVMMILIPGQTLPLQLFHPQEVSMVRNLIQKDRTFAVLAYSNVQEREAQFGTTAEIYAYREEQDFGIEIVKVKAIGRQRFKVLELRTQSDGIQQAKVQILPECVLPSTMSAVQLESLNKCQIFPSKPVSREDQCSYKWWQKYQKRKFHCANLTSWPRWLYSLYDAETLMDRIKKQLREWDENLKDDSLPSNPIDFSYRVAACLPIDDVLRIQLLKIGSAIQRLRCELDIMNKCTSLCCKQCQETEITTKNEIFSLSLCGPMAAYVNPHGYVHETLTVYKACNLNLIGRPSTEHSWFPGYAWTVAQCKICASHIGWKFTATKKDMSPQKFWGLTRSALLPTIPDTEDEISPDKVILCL
Method in brief: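 Competitive HTRF: GST-tagged human WT Cereblon mixed with compound, Thalidomide-Re tracer and GST Eu antibody, incubated 3 h at room temperature. Signals read at 620 and 665 nm.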

CDK4 = molecular target: T2, CDK4 (Homo sapiens, UniProt P11802); assay: Western blot degradation of CDK4 (MDA-MB-231 Cell); format: cell-based; conditions: Table D3
T2 construct: evaluate the effects of the compounds of the present disclosure on the expression of target proteins in cells; endogenous in cells; host or cells: MDA-MB-231
T2 sequence (P11802 whole entry): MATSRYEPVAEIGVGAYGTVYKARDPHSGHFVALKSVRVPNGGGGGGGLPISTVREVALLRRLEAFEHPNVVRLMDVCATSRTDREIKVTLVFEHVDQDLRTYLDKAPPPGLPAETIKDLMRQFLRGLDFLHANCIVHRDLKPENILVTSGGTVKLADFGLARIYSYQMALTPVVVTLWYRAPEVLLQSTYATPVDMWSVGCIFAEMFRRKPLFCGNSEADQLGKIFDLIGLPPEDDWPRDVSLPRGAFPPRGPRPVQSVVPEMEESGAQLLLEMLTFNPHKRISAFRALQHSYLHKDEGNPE
Method in brief: (§4)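 Quantification by ImageJ densitometry of Western blot bands: DC50 is the fitted concentration halving band intensity relative to DMSO. Percent remaining uses internal-control normalization, and degradation rate is its complement.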

CDK6 = molecular target: T3, CDK6 (Homo sapiens, UniProt Q00534); assay: Western blot degradation of CDK6 (MDA-MB-231 Cell); format: cell-based; conditions: Table D3
T3 construct: evaluate the effects of the compounds of the present disclosure on the expression of target proteins in cells; endogenous in cells; host or cells: MDA-MB-231
T3 sequence (Q00534 whole entry): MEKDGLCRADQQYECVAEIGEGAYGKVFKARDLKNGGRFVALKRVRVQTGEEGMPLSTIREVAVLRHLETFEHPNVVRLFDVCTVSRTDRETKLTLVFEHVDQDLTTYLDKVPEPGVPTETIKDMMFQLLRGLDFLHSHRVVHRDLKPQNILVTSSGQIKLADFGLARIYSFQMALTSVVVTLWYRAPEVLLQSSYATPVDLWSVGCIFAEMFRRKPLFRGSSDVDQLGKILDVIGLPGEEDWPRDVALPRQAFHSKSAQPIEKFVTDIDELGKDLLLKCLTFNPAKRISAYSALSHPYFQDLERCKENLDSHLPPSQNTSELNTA
Method in brief: as §4

SW620 = assay: CCK-8 proliferation, SW620; format: cell-based; conditions: Homo sapiens, SW-620; CCK-8; 96 hours; read-out: Inhibitory activity (IC50) on tumor cell proliferation, SW620
Method: as §1, §2

Jurkat = assay: CCK-8 proliferation, Jurkat; format: cell-based, Human; conditions: Homo sapiens, Jurkat; CCK-8; 96 hours; read-out: Inhibitory activity (IC50) on tumor cell proliferation, Jurkat
Method in brief: as §3

H2228 = assay: CCK-8 proliferation, NCI-H2228 (H2228); format: cell-based; conditions: Homo sapiens, NCI-H2228; CCK-8; 96 hours; read-out: Inhibitory activity (IC50) on tumor cell proliferation, H2228
Method in brief: as §3

PC-9 = assay: CCK-8 proliferation, PC-9; format: cell-based, Human; conditions: Homo sapiens, PC-9; CCK-8; 96 hours; read-out: Inhibitory activity (IC50) on tumor cell proliferation, PC-9
Method in brief: as §3

[2] = tested on: H1975-1µM Osimertinib cells; assay: CCK-8 proliferation, osimertinib-resistant H1975 cells; format: cell-based, Human; conditions: Homo sapiens, NCI-H1975; CCK-8; osimertinib-resistant H1975 cells obtained by treating H1975 cells with 1 µM Osimertinib for 3 months; read-out: Inhibitory activity (IC50) on tumor cell proliferation, H1975-1µm Osimertinib
Method: as §1, §2

HCC827 = assay: CCK-8 proliferation, HCC827; format: cell-based, Human; conditions: Homo sapiens, HCC827; CCK-8; 96 hours; read-out: Inhibitory activity (IC50) on tumor cell proliferation, HCC827
Method: as §1, §2

EGFR = assay: Western blot degradation of EGFR (H1975 Cell); format: cell-based, Human; conditions: Table D2
Method in brief: as §4

Row | Structure (SMILES) | pIC50 (MM.1R) | pIC50 (H1975) | pIC50 (SW620) | pIC50 (H2228) | pIC50 (PC-9) | also measured
1 | CN(Cc1ccc(C2CCC(=O)NC2=O)cc1)C1CCN(c2ccc(C(N)=O)c(-c3ccc(Oc4ccccc4)cc3)n2)CC1 (stereo not drawn) [GT-03828, 6-(4-((4-(2,6-dioxopiperidin-3-yl)benzyl)(methyl)amino)piperidin-1-yl)-2-(4-phenoxyphenyl)nicotinamide] | 6.00 to 6.30 | – | – | – | – | –
2 | Cc1nc2c(F)cc(-c3nc(Nc4ccc(N5CCC(N6CCN(Cc7ccc(C8CCC(=O)NC8=O)cc7)CC6)CC5)cn4)ncc3F)cc2n1C(C)C (stereo not drawn) [GT-03905, 3-(4-((4-(1-(6-((5-fluoro-4-(4-fluoro-1-isopropyl-2-methyl-1H-benzo[d]imidazol-6-yl)pyrimidin-2-yl)amino)pyridin-3-yl)piperidin-4-yl)piperazin-1-yl)methyl)phenyl)piperidine-2,6-dione] | 7.00 to 7.30 | 6.30 to 7.00 | – | – | – | pIC50 (CCRF-CEM): 6.30 to 7.00; pIC50 (Kasumi-1): 7.00 to 7.30; pIC50 (MM.1S): 7.00 to 7.30; inhibition at 0.5 µM [1]: 40 to 53%; inhibition at 2 µM [1]: 53 to 60%; Degradation of substrate protein CDK4 (substrate protein remaining %) (CDK4): A (A is defined as 0% ≤ substrate protein remaining % ≤ 80%); Degradation of substrate protein CDK6 (substrate protein remaining %) (CDK6): A (A is defined as 0% ≤ substrate protein remaining % ≤ 80%)
3 | COc1cc(C(=O)NC2CCN(Cc3cccc(N4CCC(=O)NC4=O)c3)CC2)c(F)cc1Nc1ncc(C(F)(F)F)c(Oc2cccc3c2C(=O)N(C)C3)n1 [GT-04257, N-(1-(3-(2,4-dioxotetrahydropyrimidin-1(2H)-yl)benzyl)piperidin-4-yl)-2-fluoro-5-methoxy-4-((4-((2-methyl-3-oxoisoindolin-4-yl)oxy)-5-(trifluoromethyl)pyrimidin-2-yl)amino)benzamide] | 6.30 to 7.00 | – | 6.00 to 6.30 | – | – | pIC50 (CCRF-CEM): 6.30 to 7.00; pIC50 (Jurkat): 6.30 to 7.00; inhibition at 0.5 µM [1]: 60 to 80%; inhibition at 2 µM [1]: 80 to 100%
4 | NC(=O)c1ncc(N2CCCCC2)nc1Nc1ccc(C2CCN(Cc3ccc(C4CCC(=O)NC4=O)cc3)CC2)cc1 (stereo not drawn) [GT-04785, 3-((4-(1-(4-(2,6-dioxopiperidin-3-yl)benzyl)piperidin-4-yl)phenyl)amino)-5-(piperidin-1-yl)pyrazine-2-carboxamide] | 6.30 to 7.00 | 6.00 to 6.30 | 6.00 to 6.30 | 6.30 to 7.00 | 6.30 to 7.00 | –
5 | NC(=O)c1ncc(N2CCCCC2)nc1Nc1ccc(C2CCN(Cc3cccc(N4CCC(=O)NC4=O)c3)CC2)cc1 [GT-04787, 3-((4-(1-(3-(2,4-dioxotetrahydropyrimidin-1(2H)-yl)benzyl)piperidin-4-yl)phenyl)amino)-5-(piperidin-1-yl)pyrazine-2-carboxamide] | 6.00 to 6.30 | 6.00 to 6.30 | – | 6.30 to 7.00 | 6.30 to 7.00 | –
6 | NC(=O)c1ncc(N2CCCCC2)nc1Nc1ccc(C2CCN(Cc3cccc(NC4CCC(=O)NC4=O)c3)CC2)cc1 (stereo not drawn) [GT-04791, 3-((4-(1-(3-((2,6-dioxopiperidin-3-yl)amino)benzyl)piperidin-4-yl)phenyl)amino)-5-(piperidin-1-yl)pyrazine-2-carboxamide] | > 9.00 | – | 6.00 to 6.30 | 6.30 to 7.00 | 6.00 to 6.30 | –
7 | CN1CCN([C@@H]2CCCN(c3cnc(C(N)=O)c(Nc4ccc(C5CCN(Cc6cccc(N7CCC(=O)NC7=O)c6)CC5)cc4)n3)C2)C1=O [GT-04800, (R)-3-((4-(1-(3-(2,4-dioxotetrahydropyrimidin-1(2H)-yl)benzyl)piperidin-4-yl)phenyl)amino)-5-(3-(3-methyl-2-oxoimidazolidin-1-yl)piperidin-1-yl)pyrazine-2-carboxamide] | 6.00 to 6.30 | – | – | 6.00 to 6.30 | 6.30 to 7.00 | –
8 | CN1CCN([C@@H]2CCCN(c3cnc(C(N)=O)c(Nc4ccc(C5CCN(Cc6ccc(N7CCC(=O)NC7=O)cc6)CC5)cc4)n3)C2)C1=O [GT-04802, (R)-3-((4-(1-(4-(2,4-dioxotetrahydropyrimidin-1(2H)-yl)benzyl)piperidin-4-yl)phenyl)amino)-5-(3-(3-methyl-2-oxoimidazolidin-1-yl)piperidin-1-yl)pyrazine-2-carboxamide] | 6.30 to 7.00 | 6.00 to 6.30 | – | 6.30 to 7.00 | 6.30 to 7.00 | –
9 | CN1CCN([C@@H]2CCCN(c3cnc(C(N)=O)c(Nc4ccc(C5CCN(Cc6ccc(N7CCC(=O)NC7=O)cc6F)CC5)cc4)n3)C2)C1=O [GT-04803, (R)-3-((4-(1-(4-(2,4-dioxotetrahydropyrimidin-1(2H)-yl)-2-fluorobenzyl)piperidin-4-yl)phenyl)amino)-5-(3-(3-methyl-2-oxoimidazolidin-1-yl)piperidin-1-yl)pyrazine-2-carboxamide] | 6.30 to 7.00 | 6.00 to 6.30 | 6.30 to 7.00 | 6.30 to 7.00 | 6.30 to 7.00 | –
10 | O=C1CCN(c2ccc(CN3CCN(C4CCN(c5ccc(Nc6ncc7nc(Nc8ccccc8)n(C8CCCC8)c7n6)cc5)CC4)CC3)cc2)C(=O)N1 [GT-05917, 1-(4-((4-(1-(4-((9-cyclopentyl-8-(phenylamino)-9H-purin-2-yl)amino)phenyl)piperidin-4-yl)piperazin-1-yl)methyl)phenyl)dihydropyrimidine-2,4(1H,3H)-dione] | – | 6.30 to 7.00 | – | – | 8.00 to 9.00 | pIC50 [2]: 6.00 to 6.30; pIC50 (HCC827): 8.00 to 9.00; Degradation of substrate protein EGFR (substrate protein remaining %) (EGFR): A (A is defined as 0% ≤ substrate protein remaining % ≤ 80%)
11 | COc1cc(N2CCN(Cc3ccc(N4CCC(=O)NC4=O)nc3)CC2)c(C)cc1Nc1ncc(Br)c(Nc2ccc3nccnc3c2P(C)(C)=O)n1 [GT-05947, 1-(5-((4-(4-((5-bromo-4-((5-(dimethylphosphoryl)quinoxalin-6-yl)amino)pyrimidin-2-yl)amino)-5-methoxy-2-methylphenyl)piperazin-1-yl)methyl)pyridin-2-yl)dihydropyrimidine-2,4(1H,3H)-dione] | – | 6.30 to 7.00 | – | – | 7.00 to 7.30 | pIC50 [2]: 6.30 to 7.00; pIC50 (HCC827): 6.30 to 7.00; Degradation of substrate protein EGFR (substrate protein remaining %) (EGFR): A (A is defined as 0% ≤ substrate protein remaining % ≤ 80%)
